Results published in ChEMBL document CHEMBL1201862, “PubChem BioAssay data set” (2004).
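Growth conditions: 96-well plates. Treatment: test compound, 48 hours, 5 concentrations. Analysis: linear interpolation between bracketing concentrations; unreached endpoints set to highest concentration. Here, GI50 denotes the concentration required for 50% inhibition of growth.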 Activity calls are given as the source filed them. Rule as the data show it: active = GI50 up to about 1.1 µM and inactive = higher.

Columns and labels:
Test in all cases: inhibition of tumour cell growth, NCI panel, 48 h
LOX IMVI = test system: LOX IMVI
KM12 = test system: KM12
OVCAR-5 = test system: OVCAR-5
SNB-75 = test system: SNB-75
RPMI-8226 = test system: RPMI-8226
SR = test system: SR
UACC-257 = test system: UACC-257
CAKI-1 = test system: CAKI-1
M14 = test system: M14
IGROV-1 = test system: IGROV-1
A549 = test system: A549
SK-MEL-2 = test system: SK-MEL-2
A498 = test system: A498
SF-268 = test system: SF-268
MOLT-4 = test system: MOLT-4
OVCAR-8 = test system: OVCAR-8
PC-3 = test system: PC-3
MDA-N = test system: MDA-N
NCI/ADR-RES = test system: NCI/ADR-RES

Structure (SMILES) | GI50 (LOX IMVI) | GI50 (KM12) | GI50 (OVCAR-5) | GI50 (SNB-75) | GI50 (RPMI-8226) | GI50 (SR) | GI50 (UACC-257) | GI50 (CAKI-1) | GI50 (M14) | GI50 (IGROV-1) | GI50 (A549) | GI50 (SK-MEL-2) | GI50 (A498) | GI50 (SF-268) | GI50 (MOLT-4) | GI50 (OVCAR-8) | GI50 (PC-3) | GI50 (MDA-N) | GI50 (NCI/ADR-RES)
CN(C(=O)C12C3C4C5C3C1(C(=O)O)C5C42)C(C)(C)C (stereo not drawn) | 26.1 µM (inactive) | > 100 µM (inactive) | > 100 µM (inactive) | > 100 µM (inactive) | 52 µM (inactive) | > 100 µM (inactive) | > 100 µM (inactive) | > 100 µM (inactive) | > 100 µM (inactive) | > 100 µM (inactive) | 42.2 µM (inactive) | > 100 µM (inactive) | > 100 µM (inactive) | > 100 µM (inactive) | > 100 µM (inactive) | > 100 µM (inactive) | – | – | –
Cc1ccc(S(=NS(=O)(=O)c2ccc(C)cc2)c2ccc(C)cc2)cc1 | – | 48.5 µM (inactive) | > 100 µM (inactive) | – | > 100 µM (inactive) | 36.9 µM (inactive) | > 100 µM (inactive) | – | > 100 µM (inactive) | – | 62.5 µM (inactive) | – | – | 76.2 µM (inactive) | > 10 µM (inactive) | 71.6 µM (inactive) | 64 µM (inactive) | 77.1 µM (inactive) | 38.7 µM (inactive)
COC(=O)C1=C(CCCCO[Si](C)(C)C(C)(C)C)NC(=O)N2[C@@H](CCOCc3ccccc3)CC[C@H]12 | – | 18.3 µM (inactive) | 33.1 µM (inactive) | 25.2 µM (inactive) | 23.4 µM (inactive) | – | 21.1 µM (inactive) | 16.8 µM (inactive) | 25.8 µM (inactive) | – | 14.8 µM (inactive) | 16.2 µM (inactive) | 53 µM (inactive) | 25.8 µM (inactive) | 18.4 µM (inactive) | – | 21.1 µM (inactive) | 17.6 µM (inactive) | 15.3 µM (inactive)
CC(C)CC(O)P(=O)(O)O.NC1CCCCC1 (stereo not drawn) | – | > 100 µM (inactive) | > 100 µM (inactive) | > 100 µM (inactive) | > 100 µM (inactive) | – | > 100 µM (inactive) | > 100 µM (inactive) | > 100 µM (inactive) | – | > 100 µM (inactive) | > 100 µM (inactive) | > 100 µM (inactive) | – | > 100 µM (inactive) | – | > 100 µM (inactive) | > 100 µM (inactive) | –
CCOc1ccc(NC(=O)CC2C(=O)Nc3ccccc3[S+]2[O-])cc1 (stereo not drawn) | > 100 µM (inactive) | > 100 µM (inactive) | > 100 µM (inactive) | 20.1 µM (inactive) | > 100 µM (inactive) | 29.5 µM (inactive) | > 100 µM (inactive) | > 67 µM (inactive) | > 100 µM (inactive) | > 90.6 µM (inactive) | > 94 µM (inactive) | > 100 µM (inactive) | > 64 µM (inactive) | 49.7 µM (inactive) | > 100 µM (inactive) | 57.9 µM (inactive) | – | – | –
NC1=NCC(c2ccccn2)C1c1ccc(F)cc1 (stereo not drawn) | > 100 µM (inactive) | > 100 µM (inactive) | > 100 µM (inactive) | > 100 µM (inactive) | > 100 µM (inactive) | > 100 µM (inactive) | > 100 µM (inactive) | > 100 µM (inactive) | > 100 µM (inactive) | > 100 µM (inactive) | > 100 µM (inactive) | > 100 µM (inactive) | > 100 µM (inactive) | > 100 µM (inactive) | > 100 µM (inactive) | > 100 µM (inactive) | – | – | –
C[Si](C)(c1ccccc1)C1CC(=O)CC(=O)C1 | 20.8 µM (inactive) | > 100 µM (inactive) | > 100 µM (inactive) | > 100 µM (inactive) | > 100 µM (inactive) | > 100 µM (inactive) | > 100 µM (inactive) | > 100 µM (inactive) | > 100 µM (inactive) | 22.7 µM (inactive) | > 100 µM (inactive) | > 100 µM (inactive) | – | > 100 µM (inactive) | > 100 µM (inactive) | > 100 µM (inactive) | – | – | –
COP(=O)(OC)C(O)CC(C)C (stereo not drawn) | – | > 100 µM (inactive) | > 100 µM (inactive) | > 100 µM (inactive) | > 100 µM (inactive) | – | > 100 µM (inactive) | > 100 µM (inactive) | > 100 µM (inactive) | – | > 100 µM (inactive) | > 100 µM (inactive) | > 100 µM (inactive) | – | > 100 µM (inactive) | – | > 100 µM (inactive) | > 100 µM (inactive) | –
COc1nc2c(c(O)c(C)c(=O)n2OC2OCC(OC(C)=O)C(OC(C)=O)C2OC(C)=O)c(=O)n1C (stereo not drawn) | > 100 µM (inactive) | > 100 µM (inactive) | > 100 µM (inactive) | > 100 µM (inactive) | – | > 100 µM (inactive) | – | – | > 100 µM (inactive) | > 100 µM (inactive) | > 100 µM (inactive) | > 100 µM (inactive) | – | > 100 µM (inactive) | > 100 µM (inactive) | > 100 µM (inactive) | – | – | –
C[N+](C)(C)CC(=O)N/N=C(/C=C/c1ccccc1)CC1OC(=O)c2ccccc21 (stereo not drawn) | > 10 µM (inactive) | > 100 µM (inactive) | > 10 µM (inactive) | > 100 µM (inactive) | > 100 µM (inactive) | – | > 100 µM (inactive) | > 100 µM (inactive) | > 100 µM (inactive) | > 100 µM (inactive) | > 100 µM (inactive) | > 100 µM (inactive) | > 100 µM (inactive) | > 100 µM (inactive) | > 100 µM (inactive) | > 100 µM (inactive) | – | – | –
CCOc1ccc2c(c1)[n+]([O-])c(C(N)=O)c(N)[n+]2[O-] | – | > 100 µM (inactive) | > 100 µM (inactive) | > 100 µM (inactive) | – | > 100 µM (inactive) | > 100 µM (inactive) | > 100 µM (inactive) | > 100 µM (inactive) | > 100 µM (inactive) | > 100 µM (inactive) | > 100 µM (inactive) | > 100 µM (inactive) | > 100 µM (inactive) | > 100 µM (inactive) | > 100 µM (inactive) | – | – | –
Cc1ccc(Cc2n[nH]c(=O)n2-c2ccccc2)cc1 | – | > 100 µM (inactive) | > 100 µM (inactive) | > 100 µM (inactive) | 36.1 µM (inactive) | > 100 µM (inactive) | > 100 µM (inactive) | > 100 µM (inactive) | – | > 100 µM (inactive) | > 100 µM (inactive) | 73.1 µM (inactive) | 37.5 µM (inactive) | > 100 µM (inactive) | > 100 µM (inactive) | > 100 µM (inactive) | > 100 µM (inactive) | > 100 µM (inactive) | > 100 µM (inactive)
COc1ccc(/C=c2/sc3n(c2=O)C(c2ccccc2)C2(O)CCCCC2N=3)cc1 (stereo not drawn) | > 12.5 µM (inactive) | – | > 12.5 µM (inactive) | > 12.5 µM (inactive) | > 12.5 µM (inactive) | > 12.5 µM (inactive) | > 12.5 µM (inactive) | > 12.5 µM (inactive) | > 12.5 µM (inactive) | > 12.5 µM (inactive) | > 12.5 µM (inactive) | > 12.5 µM (inactive) | – | > 12.5 µM (inactive) | > 12.5 µM (inactive) | > 12.5 µM (inactive) | > 12.5 µM (inactive) | > 12.5 µM (inactive) | –
Cc1cc2c(C(C)C)c(O)c(O)c(/C=N\CCO)c2c(O)c1-c1c(C)cc2c(C(C)C)c(O)c(O)c(/C=N/CCO)c2c1O | 1.64 µM (inactive) | 0.74 µM (active) | 3.66 µM (inactive) | 2.67 µM (inactive) | 1.19 µM (inactive) | 1.1 µM (active) | 2.32 µM (inactive) | 5.24 µM (inactive) | 1.83 µM (inactive) | 1.91 µM (inactive) | 1.21 µM (inactive) | 3.15 µM (inactive) | 3.36 µM (inactive) | 1.39 µM (inactive) | 0.527 µM (active) | 3.3 µM (inactive) | – | – | –
CN1c2ccccc2C(=O)Nc2cnc(Cl)nc21 | > 100 µM (inactive) | > 100 µM (inactive) | > 100 µM (inactive) | 39.2 µM (inactive) | > 100 µM (inactive) | – | > 100 µM (inactive) | > 100 µM (inactive) | > 100 µM (inactive) | > 100 µM (inactive) | > 100 µM (inactive) | > 100 µM (inactive) | 73.6 µM (inactive) | – | > 100 µM (inactive) | 65.2 µM (inactive) | > 100 µM (inactive) | > 100 µM (inactive) | 82.6 µM (inactive)
COC(=O)CCC(=O)CC(=O)C(=O)Nc1c(Cl)cc([N+](=O)[O-])cc1Cl | 52.1 µM (inactive) | > 100 µM (inactive) | > 100 µM (inactive) | 47.2 µM (inactive) | 33.4 µM (inactive) | 27.2 µM (inactive) | > 100 µM (inactive) | 61.8 µM (inactive) | > 100 µM (inactive) | > 100 µM (inactive) | > 100 µM (inactive) | > 100 µM (inactive) | 57.3 µM (inactive) | > 100 µM (inactive) | > 100 µM (inactive) | > 100 µM (inactive) | – | – | –
O=C1C(N2C(=O)c3ccccc3C2=O)CN1C(COCc1ccccc1)c1ccc(OCc2ccccc2)cc1 (stereo not drawn) | > 100 µM (inactive) | > 100 µM (inactive) | > 100 µM (inactive) | > 100 µM (inactive) | > 100 µM (inactive) | > 100 µM (inactive) | > 100 µM (inactive) | > 100 µM (inactive) | > 100 µM (inactive) | > 100 µM (inactive) | > 100 µM (inactive) | – | > 100 µM (inactive) | > 100 µM (inactive) | > 100 µM (inactive) | > 100 µM (inactive) | – | – | –
COC(=O)[C@]1(c2cc3ccccc3[nH]2)CC2CNC1C1OC(C)(C)OC21 (stereo partly drawn) | > 100 µM (inactive) | > 100 µM (inactive) | > 100 µM (inactive) | > 100 µM (inactive) | 61.4 µM (inactive) | 47.9 µM (inactive) | > 100 µM (inactive) | > 100 µM (inactive) | > 100 µM (inactive) | > 100 µM (inactive) | > 100 µM (inactive) | > 100 µM (inactive) | – | > 100 µM (inactive) | 66.4 µM (inactive) | > 100 µM (inactive) | > 100 µM (inactive) | 75.9 µM (inactive) | > 100 µM (inactive)
